The numbers were not newly measured in PMC9318694 (Molecules, 2022), which cites them from elsewhere.

Molecules are shown by their SMILES. Where a name gives a salt, the structure may show the parent alone. Where only a bound is given, the exact number is not on record here.

The first series deals with D2R (Homo sapiens, UniProt P14416). Particulars: Table S1; data set of actives, radio-ligand binding assays; ref ChEMBL, [50]-[70]; read-out: KI; cited from earlier work.
D2R, sequence (P14416 whole entry): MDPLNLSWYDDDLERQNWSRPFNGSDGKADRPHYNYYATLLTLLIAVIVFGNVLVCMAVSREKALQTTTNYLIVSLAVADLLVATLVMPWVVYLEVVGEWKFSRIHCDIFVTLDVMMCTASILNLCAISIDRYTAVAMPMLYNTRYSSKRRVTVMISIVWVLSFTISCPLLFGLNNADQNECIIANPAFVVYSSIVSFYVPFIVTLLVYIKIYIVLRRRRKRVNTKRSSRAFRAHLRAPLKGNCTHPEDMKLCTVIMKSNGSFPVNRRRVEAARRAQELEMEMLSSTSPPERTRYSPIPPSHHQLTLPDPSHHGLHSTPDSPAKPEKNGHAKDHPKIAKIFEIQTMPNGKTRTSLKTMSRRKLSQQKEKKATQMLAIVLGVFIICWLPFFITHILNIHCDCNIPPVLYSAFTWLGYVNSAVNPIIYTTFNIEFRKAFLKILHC
Take `CCCCn1cc(CCCOc2ccc(C(=O)NCCCCN(CCC)[C@H]3CCc4c(O)cccc4C3)cc2OC)nn1` [SC37, (S)-4-(3-(1-butyl-1H-1,2,3-triazol-4-yl)propoxy)-N-(4-((5-hydroxy-1,2,3,4-tetrahydronaphthalen-2-yl)(propyl)amino)butyl)-3-methoxybenzamide]: the Ki was 0.00047 µM.
Take `CCCN(CCC)[C@@H]1Cc2cccc3c2n(c(=O)n3CCC)C1` [SC38, (R)-5-(dipropylamino)-1-propyl-5,6-dihydro-4H-imidazo[4,5,1-ij]quinolin-2(1H)-one]: the Ki was 0.00259 µM.
Turning to `CCCCn1c(=O)n2c3c(cccc31)C[C@@H](NC)C2` [SC39, (R)-1-butyl-5-(methylamino)-5,6-dihydro-4H-imidazo[4,5,1-ij]quinolin-2(1H)-one], the Ki was 0.0128 µM.
`CCCn1c(=O)n2c3c(cccc31)C[C@@H](NC)C2` [SC40, (R)-5-(methylamino)-1-propyl-5,6-dihydro-4H-imidazo[4,5,1-ij]quinolin-2(1H)-one]: the Ki is 0.0132 µM.
Consider `CCCN[C@@H]1Cc2cccc3c2n(c(=O)n3CCC)C1` [SC41, (R)-1-propyl-5-(propylamino)-5,6-dihydro-4H-imidazo[4,5,1-ij]quinolin-2(1H)-one], for which the Ki is 0.00808 µM.
For `CCCN[C@@H]1Cc2cccc3c2n(c(=O)n3CCCCOCCCCc2ccccc2)C1` [SC42, (R)-1-(4-(4-phenylbutoxy)butyl)-5-(propylamino)-5,6-dihydro-4H-imidazo[4,5,1-ij]quinolin-2(1H)-one], the Ki is 0.0372 µM.
Turning to `CN[C@@H]1Cc2cccc3c2n(c(=O)n3CCCCOc2ccc3c(c2)NC(=O)CC3)C1` [SC44, (R)-5-(methylamino)-1-(4-((2-oxo-1,2,3,4-tetrahydroquinolin-7-yl)oxy)butyl)-5,6-dihydro-4H-imidazo[4,5,1-ij]quinolin-2(1H)-one], the Ki is 0.338 µM.
For `CN[C@@H]1Cc2cccc3c2n(c(=O)n3CCOCCOCCOCCCCc2ccccc2)C1` [SC45, (R)-5-(methylamino)-1-(2-(2-(2-(4-phenylbutoxy)ethoxy)ethoxy)ethyl)-5,6-dihydro-4H-imidazo[4,5,1-ij]quinolin-2(1H)-one], the Ki is 0.0347 µM.
Take `O=c1ccc2c(N3CCCN(CCCCOc4ccn5nccc5c4)CC3)ccc(O)c2[nH]1` [SC46, 8-hydroxy-5-(4-(4-(pyrazolo[1,5-a]pyridin-5-yloxy)butyl)-1,4-diazepan-1-yl)quinolin-2(1H)-one]: the Ki is 0.078 µM.
`CN[C@@H]1Cc2cccc3c2n(c(=O)n3CCOCCOCCOCCOc2ccc3c(c2)NC(=O)CC3)C1` [SC48, (R)-5-(methylamino)-1-(2-(2-(2-(2-((2-oxo-1,2,3,4-tetrahydroquinolin-7-yl)oxy)ethoxy)ethoxy)ethoxy)ethyl)-5,6-dihydro-4H-imidazo[4,5,1-ij]quinolin-2(1H)-one]: the Ki was 0.306 µM.
For `CN(CCCCOc1ccc2c(c1)NC(=O)CC2)[C@@H]1Cc2cccc3[nH]c(=O)n(c23)C1` [SC49, (R)-5-(methyl(4-((2-oxo-1,2,3,4-tetrahydroquinolin-7-yl)oxy)butyl)amino)-5,6-dihydro-4H-imidazo[4,5,1-ij]quinolin-2(1H)-one], the Ki was 0.0401 µM.
Regarding `CN[C@@H]1Cc2cccc3c2n(c(=O)n3CCOCCOCCCCc2ccccc2)C1` [SC50, (R)-5-(methylamino)-1-(2-(2-(4-phenylbutoxy)ethoxy)ethyl)-5,6-dihydro-4H-imidazo[4,5,1-ij]quinolin-2(1H)-one], the Ki is 0.111 µM.
Turning to `CN[C@@H]1Cc2cccc3c2n(c(=O)n3CCCCCCCCCCCCOc2ccc3c(c2)NC(=O)CC3)C1` [SC51, (R)-5-(methylamino)-1-(12-((2-oxo-1,2,3,4-tetrahydroquinolin-7-yl)oxy)dodecyl)-5,6-dihydro-4H-imidazo[4,5,1-ij]quinolin-2(1H)-one], the Ki was 0.284 µM.
Turning to `O=C1CCc2ccc(OCCCCN3CCCN(c4ccc(O)c5[nH]c(=O)ccc45)CC3)cc2N1` [SC52, 8-hydroxy-5-(4-(4-((2-oxo-1,2,3,4-tetrahydroquinolin-7-yl)oxy)butyl)-1,4-diazepan-1-yl)quinolin-2(1H)-one], the Ki was 0.0016 µM.
`CCCN(CCN1CCN(c2ccc(-c3ccccc3)cc2)CC1)[C@H]1CCc2nc(N)sc2C1` [SC53, (S)-N6-(2-(4-([1,1'-biphenyl]-4-yl)piperazin-1-yl)ethyl)-N6-propyl-4,5,6,7-tetrahydrobenzo[d]thiazole-2,6-diamine]: the Ki was 0.264 µM.
On to `CCCN(CCN1CCN(c2cccc3ncccc23)CC1)[C@H]1CCc2nc(N)sc2C1` [SC55, (S)-N6-propyl-N6-(2-(4-(quinolin-5-yl)piperazin-1-yl)ethyl)-4,5,6,7-tetrahydrobenzo[d]thiazole-2,6-diamine], for which the Ki is 0.0577 µM.
In the case of `CCCN(CCN1CCN(c2nccc3ccccc23)CC1)[C@H]1CCc2nc(N)sc2C1` [SC56, (S)-N6-(2-(4-(isoquinolin-1-yl)piperazin-1-yl)ethyl)-N6-propyl-4,5,6,7-tetrahydrobenzo[d]thiazole-2,6-diamine], the Ki is 0.269 µM.

The same series, now with this note: Table S2; data set of inactives, radio-ligand binding (RLB) assays; ref ChEMBL, [71]-[92]; read-out: KI; cited from earlier work.
Take `Clc1ccc(N2CCN(CCCCNc3noc(-c4ccccc4)n3)CC2)cc1` [SC62, N-[4-[4-(4-chlorophenyl)piperazin-1-yl]butyl]-5-phenyl-1,2,4-oxadiazol-3-amine;hydrochloride]: the Ki is 79 µM.
As for `COc1cc2c(cc1OC)CN(C=Nc1ccc3c(c1)C1SCCSC1C3)CC2` (centres unmarked) [SC63, N-(3,4a,9,9a-tetrahydro-2H-indeno[1,2-b][1,4]dithiin-6-yl)-1-(6,7-dimethoxy-3,4-dihydro-1H-isoquinolin-2-yl)methanimine], the Ki is over 100 µM.
For `COc1cc2c(cc1OC)CN(C=Nc1ccc3c(c1)C1SCCSC1CC3)CC2` (centres unmarked) [SC64, N-(2,3,4a,5,6,10b-hexahydrobenzo[f][1,4]benzodithiin-9-yl)-1-(6,7-dimethoxy-3,4-dihydro-1H-isoquinolin-2-yl)methanimine], the Ki is over 300 µM.
Turning to `COc1ccc2[nH]c3c(c2c1)CCN=C3c1cc([N+](=O)[O-])cn1C` [SC65, 6-methoxy-1-(1-methyl-4-nitropyrrol-2-yl)-4,9-dihydro-3H-pyrido[3,4-b]indole], the Ki is 200 µM.
For the molecule `COc1cc2c(cc1OC)CN(C=Nc1ccc3c(c1)C1SCCSC1CC3)CC2` (centres unmarked) [SC66, N-(2,3,4a,5,6,10b-hexahydrobenzo[f][1,4]benzodithiin-9-yl)-1-(6,7-dimethoxy-3,4-dihydro-1H-isoquinolin-2-yl)methanimine], the Ki was over 100 µM.
For `COc1cc2c(cc1OC)CN(C=Nc1ccc3c(c1)C(O)CC3)CC2` (centres unmarked) [SC67, 6-[(6,7-dimethoxy-3,4-dihydro-1H-isoquinolin-2-yl)methylideneamino]-2,3-dihydro-1H-inden-1-ol], the Ki is over 300 µM.
With `OCc1cccn2ncc(CN3CCN(c4ccc(Cl)cc4)CC3)c12` [SC70, [3-[[4-(4-chlorophenyl)piperazin-1-yl]methyl]pyrazolo[1,5-a]pyridin-4-yl]methanol], the Ki is 79 µM.
Take `N#CC(C#N)=Cc1ccc(CN2CCN(c3ccccc3)CC2)[nH]1` [SC71, 2-[[5-[(4-phenylpiperazin-1-yl)methyl]-1H-pyrrol-2-yl]methylidene]propanedinitrile]: the Ki was over 100 µM.
Turning to `CCCNC1CCn2ncc(C(=O)OC)c2C1` (centres unmarked) [SC94, methyl 5-(propylamino)-4,5,6,7-tetrahydropyrazolo[1,5-a]pyridine-3-carboxylate], the Ki is over 100 µM.
Turning to `Fc1ccc(N2CCN(Cc3cn4ccncc4n3)CC2)cc1` [SC95, 2-[[4-(4-fluorophenyl)piperazin-1-yl]methyl]imidazo[1,2-a]pyrazine], the Ki is 68 µM.
With `Cc1ccc(CNCC2(F)CCN(C(=O)c3cc(Br)cs3)CC2)nc1` [SC96, (4-bromothiophen-2-yl)-[4-fluoro-4-[[(5-methylpyridin-2-yl)methylamino]methyl]piperidin-1-yl]methanone], the Ki was 100 µM.
Regarding `CCCN(CCC)[C@@H]1CCn2nccc2C1` [SC97, (5R)-N,N-dipropyl-4,5,6,7-tetrahydropyrazolo[1,5-a]pyridin-5-amine], the Ki is 55 µM.
Turning to `FCCOc1ccc(N2CCN(Cc3cnn4ccccc34)CC2)cc1` [SC98, 3-[[4-[4-(2-fluoroethoxy)phenyl]piperazin-1-yl]methyl]pyrazolo[1,5-a]pyridine], the Ki was 79 µM.
With `CCCNCCCCNC(=O)c1ccc(-c2ccccc2)cc1` [SC99, 4-phenyl-N-[4-(propylamino)butyl]benzamide], the Ki is over 100 µM.
On to `COc1cccc(CCc2ccccc2OCCCCN2CCN(c3ccc(F)cc3)CC2)c1` [SC100, 1-(4-fluorophenyl)-4-[4-[2-[2-(3-methoxyphenyl)ethyl]phenoxy]butyl]piperazine], for which the Ki is 1320 µM.
On to `COc1cccc(CCc2ccccc2OCCN2CCN(c3ncccn3)CC2)c1` [SC101, 2-[4-[2-[2-[2-(3-methoxyphenyl)ethyl]phenoxy]ethyl]piperazin-1-yl]pyrimidine], for which the Ki is 629 µM.

The same series, now with this note: active data set; ref ChEMBL; read-out: KI / binding affinity; cited from earlier work.
On to `O=C1CCc2ccc(OCCCCN3CCCN(c4ccc(O)c5[nH]c(=O)ccc45)CC3)cc2N1` [SC52, 8-hydroxy-5-(4-(4-((2-oxo-1,2,3,4-tetrahydroquinolin-7-yl)oxy)butyl)-1,4-diazepan-1-yl)quinolin-2(1H)-one], for which the Ki is under 0.002 µM.

The same series, now with this note: cited from earlier work.
For `NC(=O)C[S@@+]([O-])C(c1ccccc1)c1ccccc1` [SC72, 2-[(R)-benzhydrylsulfinyl]acetamide], the Ki is over 100 µM.

The series is the same for the next values; noted with them: read-out: KI; cited from earlier work.
In the case of `CCCN(CCC)[C@@H]1Cc2cccc3c2n(c(=O)n3CCCCNC(=O)c2cc3ccccc3[nH]2)C1` [SC43, (R)-N-(4-(5-(dipropylamino)-2-oxo-5,6-dihydro-4H-imidazo[4,5,1-ij]quinolin-1(2H)-yl)butyl)-1H-indole-2-carboxamide], the Ki was 0.0868 µM.
Take `CCCN(CCCCNC(=O)c1cc2ccccc2[nH]1)[C@@H]1Cc2cccc3c2n(c(=O)n3CCC)C1` [SC47, (R)-N-(4-((2-oxo-1-propyl-1,2,5,6-tetrahydro-4H-imidazo[4,5,1-ij]quinolin-5-yl)(propyl)amino)butyl)-1H-indole-2-carboxamide]: the Ki is 0.00843 µM.
As for `CCCN(CCN1CCN(c2ccnc3ccccc23)CC1)[C@H]1CCc2nc(N)sc2C1` [SC57, (S)-N6-propyl-N6-(2-(4-(quinolin-4-yl)piperazin-1-yl)ethyl)-4,5,6,7-tetrahydrobenzo[d]thiazole-2,6-diamine], the Ki is 0.109 µM.
